Measurements taken from paper PMC5707067, “Farnesyl phenolic enantiomers as natural MTH1 inhibitors from Ganoderma sinense” (Oncotarget, 2017).

What was measured:
[1] = target: MTH1 (Homo sapiens, UniProt P36639); assay: Microscale thermophoresis (MST) binding assay
Description: Microscale thermophoresis method (MST) was employed to assay the binding affinity between the compounds and MTH1. […] The dissociation constant Kd values were automatically calculated by using the NT Analysis software (Nano Temper Technologies, München, Germany).
Recombinant human MTH1 was labeled with the Monolith NT™ Protein Labeling Kit RED (Cat#L001) according to the supplied labeling protocol [32]. Labelled MTH1 was kept constant at 100 nM, while all samples tested were diluted in a 20 mM HEPES (pH 7.5) and 0.05 (v/v) % Tween-20. Compounds were diluted in 12 dilution steps covering the range from 500 μM to 200 nM. After 10 min incubation at room temperature about 37°C, samples were loaded into Monolith™ standard-treated capillaries and the thermophoresis was measured at 25°C after 30 min incubation on a Monolith NT.115 instrument (NanoTemper Technologies, München, Germany). Laser power was set to 20% using 30 seconds on-time. The LED power was set to 100%. The dissociation constant Kd values were fitted by using the NTAnalysis software (NanoTemper Technologies, München, Germany). The Kd value of the binding was obtained in two ways. The first way was calculated by thermophoresis curve when there was no fluorescent change during the initial fluorescence scanning. The second way was calculated from the initial fluorescence scanning curve when compounds bound in the sites which directly interfered the fluorescence.

[2] = system: human ES-2 ovarian carcinoma cells (ES-2); assay: CCK8 cytotoxicity assay, ES-2; format: cell-based; settings: Homo sapiens, Ovarian carcinoma cell; CCK8, 48 h, carcinoma cell line
Text: (§1) The growth inhibitory effects of the isolated farnesyl phenolic compounds (1–8) against carcinoma cell lines [human osteosarcoma cells (U2OS), human colorectal carcinoma cells (SW620), human ES-2 ovarian carcinoma cells (ES-2)] and normal tissue cell lines [human hepatic cells (Lo2), African green monkey kidney vero cells (Vero)] were further investigated using CCK8 assay method (Table 3).
(§2) Carcinoma cell lines [human osteosarcoma cells (U2OS), human colorectal carcinoma cells (SW620), human ES-2 ovarian carcinoma cells (ES-2)] and normal tissue cell lines [human hepatic cells (Lo2), African green monkey kidney Vero cells (Vero)] The U2OS, SW620, ES-2, Lo2 and Vero were obtained from ATCC (Manassas, VA, USA). The SW620 and Vero cells were cultured in Roswell Park Memorial Institute medium (RPMI), with 10% fetal bovine serum (Hyclone) and 1% penicillin-streptomycin (Sigma). Lo2, U2OS and ES-2 cells were grown in Dulbecco's modified eagle medium (DMEM), with 10% fetal bovine serum (Hyclone) and 1% penicillin-streptomycin (Sigma). All of these cells were cultured at 37°C in a humidified atmosphere with 5% CO2. For CCK8 assay cytotoxicity evaluation of compounds, all cells were separately plated at a density of 1 × 10^4 cells/well in a 96 well plate. Cells were cultivated at 37°C in 5% CO2 atmosphere for 24 h, then medium in the wells was replaced with fresh medium containing compounds which were diluted in 8 dilution steps covering the range from 200 μM to 1.5625 μM. And DMSO was used as negative control. After 48 h incubation, 10 μL of CCK8 solution was added to each well. After 30 min, the optical density (OD) of each well was measured at wavelength of 450 nm on spectrophotometer. Data were corrected for background (no-cell control) and expressed as a percentage of the value for untreated cells. The IC50 values of the isolated compounds were derived from the mean OD values of the triplicate tests versus the drug concentration curves.

[3] = system: human colorectal carcinoma cells (SW620); assay: CCK8 cytotoxicity assay, SW620; format: cell-based; settings: Homo sapiens, SW-620; CCK8, 48 h, carcinoma cell line
Text: as §1, §2

[4] = system: MTH1 siRNA transfected SW620 cells; assay: CCK8 growth assay in MTH1 siRNA transfected cells; format: cell-based, human
Description: In order to study whether the cytotoxicity of the farnesyl phenolic compounds was due to the inhibition of MTH1, the expression of endogenous MTH1 was knocked down in cancer cells. SW620 cell lines were transfected with MTH1 siRNA (#1, #2 and #3), [2] while the control was transfected with non-targeting siRNA (NT). The expression levels of MTH1 were measured by Western blot assay (Figure 6A and 6B), both siRNA #2 and #3 knocked down expressions of MTH1 in SW620 cells. The effects of compound 1 on the growth of MTH1 siRNA (#2 and #3) and non-targeting siRNA transfected cells were assessed by CCK8 assay.
Figure 6 The specific binding of compound 1 to the MTH1 protein leads to cell growth inhibition (A, B) Western blot analysis and optical density analysis for the expression of MTH1 for the siRNA transfected cells. MTH1 siRNA #2 and #3 were both knocked down in SW620 cells compared with the non-target siRNA (NT). (C) The effects of compound 1 on the growth of MTH1 siRNA (#2 and #3) and non-targeting siRNA transfected cells were assessed by CCK8 assay. […] (D) The effects of compounds 1 on normal tissue cell lines [human hepatic cells (Lo2), African green monkey kidney vero cells (Vero)]. (E, F) Cellular thermal shift assay (CETSA) confirmed the binding capacity of compound 1 with MTH1 at the cellular level. […]

[5] = CCK8 cytotoxicity assay, Lo2; format: cell-based, human; settings: human, Lo2 human hepatic cells (normal tissue cell line), CCK8, 48 h
Text: as §1, §2

[6] = CCK8 cytotoxicity assay, Vero; format: cell-based, African green monkey; settings: African green monkey, Vero kidney cells (normal tissue cell line), CCK8, 48 h
Text: as §1, §2

[7] = target: T1, MTH1 in SW620 cells (Homo sapiens, UniProt P36639); assay: Cellular thermal shift assay (CETSA); format: cell-based; settings: 30 μM, 12 hours, 44-54°C, vs DMSO, Western blot
T1 construct: endogenous in cells; host or cells: SW620
Description: The cellular thermal shift assay (CETSA) was recently developed to further confirm the interaction between the target and the compound in vitro by Western blot assay. CETSA was applied based on the principles that the ligand binding gave rise to the thermal stabilization of target proteins. The thermal stability of MTH1 in SW620 cells was tested at the temperature range of 44-54°C after the pretreatment of compound 1 for 12 hours (Figure 6E and 6F). Correspondingly, the control cells were treated with DMSO. […] Compared with the control group, the thermal stability of MTH1 protein in compound 1 pretreated cells was better under the same temperature condition.
CETSA was developed as a method to directly detect the binding capacity of compounds with targets at the cellular level, based on the principle of ligand-induced target protein stabilization. […] Subsequently, cells were analysed by Western blot assay.
The harvested cells were lysed with liquid nitrogen and the freeze-thaw cycles were repeated twice. […] Proteins was quantified by Bradford reagent (Bio-Rad, USA). The same amount of proteins (20-40 μg) were loaded onto 15% SDS-PAGE gels and transferred to polyvinylidene difluoride membranes (PVDF) (Millipore, USA) and analyzed using the MTH1-antibody (Proteintech) at a concentration of 1: 500. […]

[8] = system: human osteosarcoma cells (U2OS); assay: CCK8 cytotoxicity assay, U2OS; format: cell-based; settings: Homo sapiens, U2OS; CCK8, 48 h, carcinoma cell line
Text: as §1, §2

Kd [1]: 4.71 ± 0.686 µM
thermal stability of MTH1 protein [7]: better
Compound: CO[C@]1(c2cc(O)cc(O)c2)C=C(CCCC(CO)CC/C=C(\C)COC(=O)/C=C/c2ccc(O)cc2)C(=O)O1 (stereo partly drawn) [Compound 1, (5R)-3-{9-[(E)-coumaroyl]-4-hydroxymethyl-8-methyl-7-nonene}-5-(3,5-dihydroxyphenyl)-5-methoxy-2(5H)-furanone]
IC50 [2]: 55.5 ± 1.08 µM
IC50 [3]: 45 ± 1.23 µM
growth inhibition of MTH1 siRNA (#2 and #3) vs non-targeting siRNA transfected cells [4]: resistant to the growth inhibition
IC50 at 48 h [5]: 150.3 ± 1.09 µM
IC50 at 48 h [6]: > 300 µM
IC50 [8]: 111 ± 1.29 µM
